This note sets out measurements from ChEMBL document CHEMBL4270579, “Structure-activity relationship and conformational studies of the natural product cyclic depsipeptides YM-254890 and FR900359” (Eur J Med Chem, 2018).

Experiment [1] deals with T1, Guanine nucleotide-binding protein subunit alpha-11 (Homo sapiens, UniProt P29992).
T1 sequence (P29992 whole entry): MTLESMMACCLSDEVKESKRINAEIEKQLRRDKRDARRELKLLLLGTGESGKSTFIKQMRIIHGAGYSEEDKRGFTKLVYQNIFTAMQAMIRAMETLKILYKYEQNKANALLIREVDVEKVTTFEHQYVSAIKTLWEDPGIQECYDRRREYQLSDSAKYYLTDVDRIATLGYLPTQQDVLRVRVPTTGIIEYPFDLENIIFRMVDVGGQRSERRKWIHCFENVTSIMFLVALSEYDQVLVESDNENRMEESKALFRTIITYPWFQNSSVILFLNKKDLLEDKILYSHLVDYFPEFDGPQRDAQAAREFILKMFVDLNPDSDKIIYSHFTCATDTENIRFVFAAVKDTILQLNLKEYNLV
Put plainly: Inhibition of recombinant human Gq/11 coupled N-terminal 3His-tagged M1 receptor expressed in CHOK1 cells assessed as reduction in carbachol-induced IP1 accumulation pretreated for 1 hr followed by carbachol addition and subsequent incubation for 1 hr at 37 degC measured after 15 mins at room temperature by HTRF assay. The format is cell-based. On the technique in general: In TR-FRET formats the signal depends on donor and acceptor labels being close together.

The target of experiment [2] is Guanine nucleotide-binding protein G(s) subunit alpha isoforms XLas (Homo sapiens, UniProt Q5JWF2). Put plainly: Inhibition of Gs coupled adrenergic beta2 receptor in HEK293 cells assessed as reduction in isoproterenol-induced cAMP production pretreated for 1 hr followed by isoproterenol addition and measured after 30 mins by FRET assay. The experiment is classed as cell-based. (Changes in cAMP serve as a functional read-out for many G protein-coupled receptors.)

pIC50: −log10 of the molar value. *1 amine or outer side, *2 acyl side, *3 side chain or, on linkers, in order; H or OH if unused. Where a SMILES comes first, the peptide text is derived from it. Bridges are numbered along the chain shown (N, C = ends). [ ]: non-standard residue; d: D form. Leu(3R-O(AcLeu(3R-OH))) = CC(=O)N[C@H](C(=O)O[C@H](C(C)C)[C@H](N)C(=O)O)[C@H](O)C(C)C; X1 = CC(C)[C@@H](O[*:3])[C@H](N[*:1])C(=O)[*:2]; NMeT = CN[C@H](C(=O)O)[C@@H](C)O; dPhLac = O=C(O)[C@H](O)Cc1ccccc1; NMeA = CN[C@@H](C)C(=O)O; NMeDha = C=C(NC)C(=O)O

Guanine nucleotide-binding protein G(s) subunit alpha isoforms XLas, sequence (Q5JWF2 whole entry, canonical isoform): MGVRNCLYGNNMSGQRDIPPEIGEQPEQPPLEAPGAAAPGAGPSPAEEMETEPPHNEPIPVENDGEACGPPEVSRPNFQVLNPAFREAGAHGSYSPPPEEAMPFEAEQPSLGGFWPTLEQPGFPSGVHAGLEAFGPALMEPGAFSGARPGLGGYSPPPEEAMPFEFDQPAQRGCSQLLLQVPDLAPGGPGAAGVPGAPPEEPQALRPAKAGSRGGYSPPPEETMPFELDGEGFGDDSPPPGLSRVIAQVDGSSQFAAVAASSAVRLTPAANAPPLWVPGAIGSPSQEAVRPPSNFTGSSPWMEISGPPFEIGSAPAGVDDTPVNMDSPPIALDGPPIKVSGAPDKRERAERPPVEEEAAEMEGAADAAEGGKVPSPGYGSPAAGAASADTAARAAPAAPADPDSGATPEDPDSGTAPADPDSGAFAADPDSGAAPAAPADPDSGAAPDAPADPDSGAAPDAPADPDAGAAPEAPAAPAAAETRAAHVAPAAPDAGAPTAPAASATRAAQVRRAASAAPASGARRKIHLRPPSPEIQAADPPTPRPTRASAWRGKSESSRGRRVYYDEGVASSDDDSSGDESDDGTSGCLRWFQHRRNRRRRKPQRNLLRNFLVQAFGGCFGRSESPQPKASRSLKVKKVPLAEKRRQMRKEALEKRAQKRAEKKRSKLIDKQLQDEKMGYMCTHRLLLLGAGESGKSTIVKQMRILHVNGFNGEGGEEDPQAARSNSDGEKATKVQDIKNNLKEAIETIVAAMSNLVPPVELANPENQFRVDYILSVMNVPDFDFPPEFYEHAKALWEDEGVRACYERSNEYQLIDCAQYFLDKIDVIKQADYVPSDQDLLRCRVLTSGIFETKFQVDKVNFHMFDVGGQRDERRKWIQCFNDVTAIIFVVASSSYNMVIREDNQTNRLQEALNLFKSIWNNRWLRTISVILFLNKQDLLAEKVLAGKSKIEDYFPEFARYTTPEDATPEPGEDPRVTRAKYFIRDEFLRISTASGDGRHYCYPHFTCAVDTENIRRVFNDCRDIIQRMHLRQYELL

As a reminder, the pIC50 is −log10 of the IC50, conventionally taken in molar units. With `C=C1C(=O)N[C@@H](C)C(=O)N(C)[C@@H](C)C(=O)N[C@@H]([C@H](OC(=O)[C@@H](NC(C)=O)[C@H](O)C(C)C)C(C)C)C(=O)N(C)[C@@H]([C@@H](C)OC)C(=O)O[C@H](C)[C@H](NC(C)=O)C(=O)O[C@H](Cc2ccccc2)C(=O)N1C`, the values for the pIC50 in experiment [1] and in experiment [2] were 6.82 and under 4.00, respectively.

`C=C1C(=O)N[C@@H](C)C(=O)N(C)[C@@H](C)C(=O)N[C@@H]([C@H](OC(=O)[C@@H](NC(C)=O)[C@H](O)C(C)C)C(C)C)C(=O)N(C)[C@@H]([C@@H](C)OC)C(=O)O[C@H](C)[C@H](NC(C)=O)C(=O)O[C@H](CC(C)C)C(=O)N1C`: the figures for the pIC50 in experiment [1] and in experiment [2] were 5.43 and under 4.00, respectively.

With `C=C1C(=O)N[C@H](C)C(=O)N(C)[C@@H](C)C(=O)N[C@@H]([C@H](OC(=O)[C@@H](NC(C)=O)[C@H](O)C(C)C)C(C)C)C(=O)N(C)[C@@H]([C@@H](C)OC)C(=O)O[C@H](C)[C@H](NC(C)=O)C(=O)O[C@H](Cc2ccccc2)C(=O)N1C`, the pIC50 in experiment [1] is 4.44.

Turning to `C=C1C(=O)N[C@@H](C)C(=O)N(C)[C@@H](C)C(=O)N[C@@H]([C@H](OC(=O)[C@@H](NC(C)=O)[C@H](O)C(C)C)C(C)C)C(=O)N(C)[C@@H]([C@@H](C)OC)C(=O)O[C@H](C(C)C)[C@H](NC(C)=O)C(=O)O[C@H](Cc2ccccc2)C(=O)N1C` (Ac-[X1][dPhLac][NMeDha]A[NMeA][Leu(3R-O(AcLeu(3R-OH)))][NMeT](Me); ester 1-C), the results for the pIC50 in experiment [1] and in experiment [2] were 6.51 and under 4.00, respectively.

As for `C=C1C(=O)N[C@@H](C)C(=O)N(C)[C@@H](C)C(=O)N[C@@H]([C@H](OC(=O)[C@@H](NC(=O)c2ccccc2)[C@H](O)C(C)C)C(C)C)C(=O)N(C)[C@@H]([C@@H](C)OC)C(=O)O[C@H](C)[C@H](NC(C)=O)C(=O)O[C@H](Cc2ccccc2)C(=O)N1C`, the negative-log IC50 (pIC50) in experiment [1] is 5.63; in experiment [2] it was under 4.00.

For the compound `C=C1C(=O)N[C@@H](C)C(=O)N(C)[C@@H](C)C(=O)N[C@@H]([C@H](OC(=O)[C@@H](NC(C)=O)[C@H](O)C(C)C)C(C)C)C(=O)N(C)[C@@H]([C@@H](C)OC)C(=O)O[C@@H](C)[C@H](NC(C)=O)C(=O)O[C@H](Cc2ccccc2)C(=O)N1C`, the pIC50 in experiment [1] is under 4.30; in experiment [2], under 4.00.

Regarding `CO[C@H](C)[C@H]1C(=O)O[C@H](C)[C@H](NC(C)=O)C(=O)O[C@H](CC(C)C)C(=O)N(C)[C@H](CO)C(=O)N[C@@H](C)C(=O)N(C)[C@@H](C)C(=O)N[C@@H]([C@H](OC(=O)[C@@H](NC(C)=O)[C@H](O)C(C)C)C(C)C)C(=O)N1C`, the pIC50 in experiment [1] was under 4.30; in experiment [2], under 4.00.

Take `C=C1C(=O)N[C@@H](C)C(=O)N(C)[C@@H](C)C(=O)N[C@@H]([C@H](OC(=O)[C@@H](NC(C)=O)[C@H](O)C(C)C)C(C)C)C(=O)N(C)[C@@H]([C@@H](C)OC)C(=O)OC[C@H](NC(C)=O)C(=O)O[C@H](Cc2ccccc2)C(=O)N1C`: the pIC50 in experiment [1] is 5.72; in experiment [2], under 4.00.

`C=C1C(=O)N[C@@H](C)C(=O)N(C)[C@@H](C)C(=O)N[C@@H]([C@H](OC(=O)[C@@H](NC(=O)CCCCC)[C@H](O)C(C)C)C(C)C)C(=O)N(C)[C@@H]([C@@H](C)OC)C(=O)O[C@H](C)[C@H](NC(C)=O)C(=O)O[C@H](Cc2ccccc2)C(=O)N1C`: the pIC50 in experiment [1] is 6.06; in experiment [2] it was under 4.00.
